Data on three compounds can be found in patent US11479611B2 (China Medical University Hospital, priority 2019, dated 2022).

What all share (type): cell-based
Assay [1] concerns human ovarian cancer cell line SKOV3. In words: tumor cell death (cytotoxicity), Annexin V-FITC/PI flow cytometry. The conditions noted are these: treated alone; carboplatin 20 μM or 1×10^5 parental cells. The method, then: (§1) The cells are subsequently incubated for 24 hours. Each type of the tumor cells is divided into six groups. In a control, the tumor cells are untreated. In a group 1, the tumor cells are treated with the chemotherapy drug. In a group 2, the tumor cells are treated with the parental primary NK cell. In a group 3, the tumor cells are treated with the parental primary NK cell and the chemotherapy drug. In the groups 2 and 3, the number of the parental primary NK cell treated is 1×10^5 cells. In a group 4, the tumor cells are treated with the Example 1. In a group 5, the tumor cells are treated with the Example 1 and the chemotherapy drug. […] The treated cells are stained with Annexin V-FITC and propidium iodide (PI), and the apoptosis and the death of the tumor cells are detected by the flow cytometry. The sum of the percentage of cells stained with Annexin V-FITC and/or PI (that is the percentage of cells in the first quadrant, the second quadrant, and the fourth quadrant of the bivariate flow cytometry scatter plot) are calculated to obtain the cytotoxicity. The results of the cytotoxicity are counted after the three independent trials in each group.
(§2) The cells are subsequently incubated for 24 hours. […] The treated cells are stained with Annexin V-FITC and propidium iodide (PI), and the apoptosis and the death of the tumor cells are detected by the flow cytometry. […]
On the technique in general: Flow cytometry measures light scatter and fluorescence of single cells or particles in a stream.

For assay [2], the system named is HLA-G on the plasma membrane of the human ovarian cancer cell line SKOV3. Put plainly: HLA-G expression level of tumor cells by flow cytometry. The following applies: 20 μM, 48 hours, compared to untreated control, p<0.001.
The test system of assay [3] is HLA-G on the plasma membrane of the human breast cancer cell line MDA-MB-231. Described as above. The conditions noted are these: 200 nM, 48 hours, compared to untreated control, p<0.001. On the procedure: First, the human breast cancer cell line MDA-MB-231, the human malignant brain tumor cell line DBTRG, the human pancreatic cancer cell line AsPC1 and the human ovarian cancer cell line SKOV3 are seeded in a 6-well plate at a density of 2×10^5 cells/well. The cells are subsequently incubated for 24 hours. Each type of the tumor cells is divided into two groups. In a control, the tumor cells are untreated. In an experiment group, the tumor cells are treated with the chemotherapy drug for 48 hours. […] Then, the HLA-G expression level of the tumor cells are detected by flow cytometry.

In assay [4] the test system is human breast cancer cell line MDA-MB-231. In words: tumor cell death (cytotoxicity), Annexin V-FITC/PI flow cytometry. The conditions noted are these: treated alone; doxorubicin 200 nM or 1×10^5 parental cells. The method, then:
(§3) The cells are subsequently incubated for 24 hours. […] In a control, the tumor cells are untreated.
as §3

Assay [5] concerns human pancreatic cancer cell line AsPC1. The assay is described as above. The conditions noted are these: treated alone; gemcitabine 20 μM or 1×10^5 parental cells. On the procedure:
as §1, §2

In the case of `N.N.O=C([O-])C1(C(=O)[O-])CCC1.[Pt+2]` [carboplatin], in assay [1], the “death rate of SKOV3 compared to the control (in words)” value is reported as “increased, but there is no statistically significant differences compared to the control”. Further, the “expression of HLA-G on the plasma membrane of SKOV3” value in assay [2] was “increase the expression of HLA-G”. Turning to `COc1cccc2c1C(=O)c1c(O)c3c(c(O)c1C2=O)C[C@@](O)(C(=O)CO)C[C@@H]3O[C@H]1C[C@H](N)[C@H](O)[C@H](C)O1` [doxorubicin], in assay [3], the “expression of HLA-G on the plasma membrane of MDA-MB-231” value is “increase the expression of HLA-G”. The “death rate of MDA-MB-231 compared to the control (in words)” value in assay [4] was “increased, but there is no statistically significant difference compared to the control”. `Nc1ccn([C@@H]2O[C@H](CO)[C@@H](O)C2(F)F)c(=O)n1` [gemcitabine]: the “death rate of AsPC1 compared to the control (in words)” value in assay [5] is given as “increased, but there is no statistically significant difference compared to the control”.
